Measurements taken from patent US20100021895A1, “Vectors for Inducing Homozygous Mutations and Methods of Using Same” (priority 2006, published 2010).

Experiments:
[1] = tested on: HSV thymidine kinase (TK) gene in cells containing an entrapment mutation in the Hesx1 gene; test: TK gene loss, selection in gancyclovir; assay type: cell-based, mouse; details: Table 2
Method: Two types of experiments were performed to assess whether frequencies of LOH were transiently or stably elevated following carcinogen exposure. First, cells were treated with MNU and HU as before and the percentages of cells having undergone LOH were determined by selection in 2.0 mg/ml G418 at various times thereafter. Over 90% of the total LOH was induced within 24 hours of MNU and HU exposure, and only minimal additional LOH occurred subsequently (FIG. 14). Second, it was asked whether LOH frequencies at a second locus were elevated in cells having undergone LOH at the entrapment locus. For this, a Herpes Simplex Virus thymidine kinase (TK) gene was introduced into cells containing an entrapment allele of the Hesx1 gene and frequencies of TK gene loss were measured by selection in gangcyclovir. These studies utilized the cell line containing the TK gene (C8TK1) and derivatives of C8TK1 that had undergone LOH at the entrapment locus either spontaneously (C8TK1sN) or after treatment with either MNU (C8TKmN) or HU (C8TK1hN). […] Moreover, the stability of the TK gene following carcinogen treatment was largely unaffected by prior selection for LOH involving the entrapment locus. Similar results were also obtained with a second TK-containing line (C8TK2, Table 4). Together these experiments indicate that carcinogen-induced LOH results from an acute response rather than from a stably altered cellular phenotype.
Serially diluted cells were plated onto 150 mm plates containing drug-free media and allowed to attach overnight. Unattached cells were removed and media containing the indicated concentrations of methyl-nitrosourea, hydroxyurea, ethidium bromide, doxorubicin, methotrexate, diepoxybutane, or mitomycin C was put onto cells for 4 hours (or cells were exposed to ultraviolet light in the absence of media and allowed to recover in drug-free media for 4 hours). Cells were then rinsed twice with drug-free media and selection media containing 0.0, 0.3, or 2.0 mg/ml G418 was put onto cells. After 12 days of selection, the number of colonies surviving was counted and the frequency of colony formation was determined by dividing the number of colonies obtained from 2.0 mg/ml G418 selection to that obtained from parallel experiments with 0.3 mg/ml G418 selection. TK gene loss was assessed following selection in media containing 2 μg/ml gancyclovir.
Table 2. […] The HSV thymidine kinase (TK) gene was introduced into cells containing an entrapment mutation in the Hesx1 gene. A TK expressing (TK^+) clone (C8TK1) was used to select for cells that had undergone LOH at the entrapment locus (EL) spontaneously (C8TK1sN) or following treatment with HU (C8TK1hN) or MNU (C8TK1mN). The frequencies of TK gene loss were compared in cells with and without prior selection for LOH at the entrapment locus and the differences were expressed as the indicated ratios.
Table 4. Carcinogen-induced LOH does generate genetically unstable cells. The HSV thymidine kinase (TK) gene was introduced into cells containing an entrapment mutation in the Hesx1 gene. A TK expressing (TK+) clone (C8TK2) was used to select for cells that had undergone LOH at the entrapment locus (EL) spontaneously (C8TK2sN) or following treatment with HU (C8TK2hN) or MNU (C8TK2mN). The frequencies of spontaneous TK gene loss (Treatment=none) or TK gene loss following treatment with HU or MNU were compared in cells with (EL^−/−) and without prior selection for LOH (EL^+/+) at the entrapment locus and the differences were expressed as the indicated ratios.

[2] = tested on: HSV thymidine kinase (TK) gene in cells containing an entrapment mutation in the Hesx1 gene; test: TK gene loss, selection in gancyclovir; assay type: cell-based, mouse

NC(=O)NO [HU, hydroxyurea]
Ratio of Freq. TK loss ([1]; C8TK1sN and C8TK1hN, Treatment HU): 1.7
Freq. TK loss ([1]; clone C8TK1hN (EL LOH induced by HU), Treatment HU): 3.9 × 10^−4
Freq. TK loss ([1]; clone C8TK1hN (EL LOH induced by HU, TK+ EL−/−), Treatment none): 8.4 × 10^−5
Freq. TK loss ([1]; clone C8TK1sN (Spont. EL LOH), Treatment HU): 2.3 × 10^−4
Ratio of Freq. TK loss ([2]; Table 2, C8TK1sN and C8TK1hN, Treatment none): 0.6
Freq. TK loss ([2]; Table 4, clone printed C8TK1hN (EL LOH induced by HU), Treatment HU): 4.9 × 10^−4
Freq. TK loss ([2]; Table 4, clone printed C8TK1hN (EL LOH induced by HU, TK+ EL−/−), Treatment none): 1.2 × 10^−5
Freq. TK loss ([2]; Table 4, clone printed C8TK1sN (Spont. EL LOH), Treatment HU): 2.8 × 10^−4
Ratio of Freq. TK loss ([2]; Table 4, printed C8TK1sN and C8TK1hN, Treatment HU): 1.8
Ratio of Freq. TK loss ([2]; Table 4, printed C8TK1sN and C8TK1hN, Treatment none): 2.3

CN(N=O)C(N)=O [MNU, methyl-nitrosourea]
Freq. TK loss ([1]; clone C8TK1mN (EL LOH induced by MNU), Treatment MNU): 4.7 × 10^−4
Freq. TK loss ([1]; clone C8TK1mN (EL LOH induced by MNU, TK+ EL−/−), Treatment none): 1.4 × 10^−5
Freq. TK loss ([1]; clone C8TK1sN (Spont. EL LOH), Treatment MNU): 2.6 × 10^−4
Ratio of Freq. TK loss ([2]; Table 2, C8TK1mN and C8TK1sN, Treatment none): 2.6
Ratio of Freq. TK loss ([2]; Table 2, C8TK1sN and C8TK1mN, Treatment MNU): 1.8
Freq. TK loss ([2]; Table 4, clone printed C8TK1mN (EL LOH induced by MNU), Treatment MNU): 4.5 × 10^−4
Freq. TK loss ([2]; Table 4, clone printed C8TK1mN (EL LOH induced by MNU, TK+ EL−/−), Treatment none): 1.3 × 10^−5
Freq. TK loss ([2]; Table 4, clone printed C8TK1sN (Spont. EL LOH), Treatment MNU): 2.9 × 10^−4
Ratio of Freq. TK loss ([2]; Table 4, printed C8TK1mN and C8TK1sN, Treatment none): 2.4
Ratio of Freq. TK loss ([2]; Table 4, printed C8TK1sN and C8TK1mN, Treatment MNU): 1.6
